The source of these data is patent US8546588B2, “Substituted hydroxamic acids and uses thereof” (Millennium Pharmaceuticals, Inc., priority 2010, dated 2013).

The target in this assay is T1, purified human HDAC6 (Homo sapiens, UniProt Q9UBN7).
T1 construct: purchased BPS Bioscience 5006
T1 sequence (Q9UBN7 1-1215): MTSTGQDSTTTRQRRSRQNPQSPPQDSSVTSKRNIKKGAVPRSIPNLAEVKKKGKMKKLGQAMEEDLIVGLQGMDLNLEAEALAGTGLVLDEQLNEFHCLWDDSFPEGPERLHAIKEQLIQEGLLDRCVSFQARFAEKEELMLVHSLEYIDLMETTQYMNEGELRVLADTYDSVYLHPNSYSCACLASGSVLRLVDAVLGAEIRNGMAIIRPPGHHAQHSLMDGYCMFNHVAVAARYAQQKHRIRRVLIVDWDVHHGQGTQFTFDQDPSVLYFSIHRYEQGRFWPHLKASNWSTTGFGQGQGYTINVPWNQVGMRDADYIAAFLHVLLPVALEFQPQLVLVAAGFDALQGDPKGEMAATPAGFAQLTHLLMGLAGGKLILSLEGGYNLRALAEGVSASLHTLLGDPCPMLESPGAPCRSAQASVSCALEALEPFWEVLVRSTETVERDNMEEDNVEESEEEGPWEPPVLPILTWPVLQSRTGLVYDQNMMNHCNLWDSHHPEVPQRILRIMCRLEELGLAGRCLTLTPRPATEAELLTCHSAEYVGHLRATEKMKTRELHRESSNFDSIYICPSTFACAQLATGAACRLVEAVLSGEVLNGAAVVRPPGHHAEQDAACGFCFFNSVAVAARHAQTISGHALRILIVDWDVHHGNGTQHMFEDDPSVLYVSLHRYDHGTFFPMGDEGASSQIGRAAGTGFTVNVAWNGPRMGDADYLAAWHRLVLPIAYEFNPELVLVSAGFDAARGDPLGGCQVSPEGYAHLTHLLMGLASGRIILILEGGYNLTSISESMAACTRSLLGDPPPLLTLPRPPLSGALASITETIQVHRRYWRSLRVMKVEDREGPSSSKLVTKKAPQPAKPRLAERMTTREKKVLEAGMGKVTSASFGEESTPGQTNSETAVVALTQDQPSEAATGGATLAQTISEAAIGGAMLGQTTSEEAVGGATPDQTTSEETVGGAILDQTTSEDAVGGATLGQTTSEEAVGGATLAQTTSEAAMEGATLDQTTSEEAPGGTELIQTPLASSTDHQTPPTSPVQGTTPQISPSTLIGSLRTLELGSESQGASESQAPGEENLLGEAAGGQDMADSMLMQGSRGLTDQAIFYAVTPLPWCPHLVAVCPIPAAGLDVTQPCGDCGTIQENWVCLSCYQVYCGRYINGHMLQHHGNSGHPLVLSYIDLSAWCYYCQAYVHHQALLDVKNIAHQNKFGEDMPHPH
As to the kind of experiment: HDAC6 Enzyme Assay. It is filed as biochemical. As to conditions: substrate Ac-Arg-Gly-Lys(Ac)-AMC peptide, 1 hour at 30° C. The essentials: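 Purified human HDAC6 incubated 1 h at 30 °C with Ac-Arg-Gly-Lys(Ac)-AMC peptide and compound; reaction stopped with trichostatin A, then trypsin releases AMC, read by fluorescence (Ex 340/Em 460 nm). IC50 from concentration-response curves relative to DMSO controls.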

What is called IC50 is the concentration that inhibits the measured activity by half. Read a low IC50 as greater potency in that assay. Turning to `C[C@@H](NC(=O)c1cc2ccccc2s1)c1cc(C(=O)NO)on1` [Compound I-176, 3-{(1R)-1-[(1-benzothien-2-ylcarbonyl)amino]ethyl}-N-hydroxyisoxazole-5-carboxamide], the IC50 is > 500 nM. With `C[C@H](NC(=O)c1ccc(S(C)(=O)=O)cc1)c1ncc(C(=O)NO)s1` [Compound I-177, N-hydroxy-2-((1S)-1-{[4-(methylsulfonyl)benzoyl]amino}ethyl)-1,3-thiazole-5-carboxamide], the IC50 was in the range of 100 to 500 nM. For `C[C@@H](NC(=O)c1cc2ccccc2s1)c1ncc(C(=O)NO)s1` [Compound I-178, 2-{(1R)-1-[(1-benzothien-2-ylcarbonyl)amino]ethyl}-N-hydroxy-1,3-thiazole-5-carboxamide] the value was < 100 nM; for `C[C@H](NC(=O)C12CC3CC(CC(C3)C1)C2)c1ncc(C(=O)NO)s1` [Compound I-179, 2-((1S)-1-{[1-adamantylcarbonyl]amino}ethyl)-N-hydroxy-1,3-thiazole-5-carboxamide], > 500 nM.

For `C[C@H](NC(=O)c1cc2ccccc2s1)c1ncc(C(=O)NO)s1` [Compound I-180, 2-{(1S)-1-[(1-benzothien-2-ylcarbonyl)amino]ethyl}-N-hydroxy-1,3-thiazole-5-carboxamide], the IC50 was < 100 nM. With `C[C@@H](NC(=O)c1cc2ccccc2o1)c1cc(C(=O)NO)on1` [Compound I-181, (R)-3-(1-(benzofuran-2-carboxamido)ethyl)-N-hydroxyisoxazole-5-carboxamide], the IC50 was > 500 nM. Take `C[C@@H](NC(=O)C(C)(C)C)c1cc(C(=O)NO)on1` [Compound I-182, 3-{(1R)-1-[(2,2-dimethylpropanoyl)amino]ethyl}-N-hydroxyisoxazole-5-carboxamide]: the IC50 is > 500 nM. With `C[C@H](NC(=O)C(C)(C)C)c1ncc(C(=O)NO)s1` [Compound I-183, 2-{(1S)-1-[(2,2-dimethylpropanoyl)amino]ethyl}-N-hydroxy-1,3-thiazole-5-carboxamide], the IC50 is > 500 nM.
